Measurements as given in patent US9044480B1, “Compositions and methods for treating HCV” (priority 2011, dated 2015).
Where two headings read alike, the source gives them in different places.

Tests used:
HCV = conditions: R155K (danoprevir) or R155K/D168V (vaniprevir) mutants detected; cited from earlier work
HCV R155K mutation = conditions: clinical trials and replicon cell assays (Bartels et al.; Lu et al.; Zhou et al.); cited from earlier work
[1] = tested on: NS3 protease domain from GT 1a HCV-infected subjects in replicon shuttle vector; assay: Replicon transient transfection EC50, NS3 protease domain from subjects cloned into shuttle vector, GT 1a; assay type: cell-based; conditions: for Fold Change: GT 1a; for EC50: Hepatitis C virus, GT1A
Text: (§1) Viral RNA was isolated from the plasma of HCV-infected patients at baseline (Day 1) and Day 4 by using an automated (Abbott m2000) or manual (QIAgen QIAamp Viral RNA Mini Kit) method. Amplicons containing the NS3-4A region were generated by RT-PCR, and PCR fragments containing the first 250 amino acids of NS3 were generated in a second round of PCR. The NS3 domain fragment was subsequently cloned into pJET (Fermentas) vector for clonal sequencing or digested with restriction enzymes and cloned into the replicon shuttle vector for phenotypic analysis. The lower limit of detection of the RT-PCR amplification method restricted the analysis to patient samples with HCV RNA levels above ˜500-1000 IU/mL.
Phenotypic analyses of clinical samples were also performed. For replicon transient transfection assays, RNA was transcribed from linearized plasmid DNA using a TranscriptAid T7 transcription kit (Fermentas) and 15 μg RNA was electroporated into Huh7-derived cells. […]

[2] = tested on: NS3 protease domain from GT 1b HCV-infected subjects in replicon shuttle vector; assay: Replicon transient transfection EC50, NS3 protease domain from subjects cloned into shuttle vector, GT 1b; assay type: cell-based; conditions: for EC50: Hepatitis C virus, GT1B
Text: as §1
(§2) Phenotypic analyses of clinical samples were also performed. For replicon transient transfection assays, RNA was transcribed from linearized plasmid DNA using a TranscriptAid T7 transcription kit (Fermentas) and 15 μg RNA was electroporated into Huh7-derived cells. For EC50 determinations, various concentrations of Compound I were added to cells 1-2 hr after plating and the cells were cultured for 4 days, followed by measurement of luciferase activity with a luciferase assay system kit (Promega).

GT 1a replicon WT = assay: HCV subgenomic replicon system, GT 1a WT; assay type: cell-based; conditions: Hepatitis C virus, GT1A
Protocol: as §2

GT 1a replicon R155G = assay: HCV subgenomic replicon system, GT 1a R155G; assay type: cell-based
Protocol: as §2

GT 1a replicon R155K = assay: HCV subgenomic replicon system, GT 1a R155K; assay type: cell-based
Protocol: as §2

GT 1a replicon D168A = assay: HCV subgenomic replicon system, GT 1a D168A; assay type: cell-based
Protocol: as §2

GT 1a replicon D168V = assay: HCV subgenomic replicon system, GT 1a D168V; assay type: cell-based
Protocol: as §2

GT 1b replicon WT = assay: HCV subgenomic replicon system, GT 1b WT; assay type: cell-based; conditions: Hepatitis C virus, GT1B
Protocol: as §2

GT 1b replicon D168V = assay: HCV subgenomic replicon system, GT 1b D168V; assay type: cell-based
Protocol: as §2

Aqueous solubility = assay type: physicochemical

For `CC[C@@H]1C[C@]1(NC(=O)[C@@H]1C[C@@H]2CN1C(=O)[C@H](C(C)(C)C)NC(=O)OCC(C)(C)CCCCc1cccc3c1CN(C3)C(=O)O2)C(=O)NS(=O)(=O)C1CC1` [vaniprevir], the “Viral load rebound in patients receiving treatment” value (HCV) is given as “viral load rebound”.
In the case of `CC(C)(C)OC(=O)N[C@H]1CCCCC/C=C\[C@@H]2C[C@@]2(C(=O)NS(=O)(=O)C2CC2)NC(=O)[C@@H]2C[C@@H](OC(=O)N3Cc4cccc(F)c4C3)CN2C1=O` [danoprevir], the “Resistance conferred by the R155K mutation” value (HCV R155K mutation) is given as “high-level resistant” and the “Viral load rebound in patients receiving treatment” value (HCV) is given as “Viral load rebound”.
With `Cc1cnc(C(=O)N[C@H]2CCCCC/C=C\[C@@H]3C[C@@]3(C(=O)NS(=O)(=O)C3CC3)NC(=O)[C@@H]3C[C@@H](Oc4nc5ccccc5c5ccccc45)CN3C2=O)cn1` [Compound I, (2R,6S,13aS,14aR,16aS,Z)—N-(cyclopropylsulfonyl)-6-(5-methylpyrazine-2-carboxamido)-5,16-dioxo-2-(phenanthridin-6-yloxy)-1,2,3,5,6,7,8,9,10,11,13a,14,14a,15,16,16a-hexadecahydrocyclopropa[e]pyrrolo[1,2-a][1,4]diazacyclopentadecine-14a-carboxamide] the “Fold Change” value ([1]; EC50 Day 4 vs Day 1, Subject A, 200/100 mg dose group) was 0.9, the “Fold Change” value ([1]; EC50 Day 4 vs Day 1, Subject B, 200/100 mg dose group) was 0.8 and the “Fold Change” value ([1]; EC50 Day 4 vs Day 1, Subject C, 200/100 mg dose group) was 1.0. For the same molecule, the “Fold Change” value ([1]; EC50 Day 4 vs Day 1, Subject D, 200/100 mg dose group) was 1.1, the “Fold Change” value ([1]; EC50 Day 4 vs Day 1, Subject N, 100/100 mg dose group) was 1.1 and the “Fold Change” value ([1]; EC50 Day 4 vs Day 1, Subject V, 50/100 mg dose group) was 1.7. The EC50 ([1]; 24 h, read-out: EC50 Day 1, Subject A, GT 1a, 200/100 mg dose group, Day 1 (baseline) sample) was 1.31 nM, the EC50 ([1]; 24 h, read-out: EC50 Day 1, Subject B, GT 1a, 200/100 mg dose group, Day 1 (baseline) sample) was 1.36 nM and the EC50 ([1]; 24 h, read-out: EC50 Day 1, Subject C, GT 1a, 200/100 mg dose group, Day 1 (baseline) sample) was 3.11 nM. The EC50 ([1]; 24 h, read-out: EC50 Day 1, Subject D, GT 1a, 200/100 mg dose group, Day 1 (baseline) sample) was 2.42 nM, the EC50 ([1]; 24 h, read-out: EC50 Day 1, Subject E, GT 1a, 200/100 mg dose group, Day 1 (baseline) sample) was 0.58 nM and the EC50 ([1]; 24 h, read-out: EC50 Day 1, Subject G, GT 1a, 200/100 mg dose group, Day 1 (baseline) sample) was 2.68 nM. For the same molecule, the EC50 ([1]; 24 h, read-out: EC50 Day 1, Subject H, GT 1a, 100/100 mg dose group, Day 1 (baseline) sample) was 1.55 nM, the EC50 ([1]; 24 h, read-out: EC50 Day 1, Subject I, GT 1a, 100/100 mg dose group, Day 1 (baseline) sample) was 1.43 nM and the EC50 ([1]; 24 h, read-out: EC50 Day 1, Subject L, GT 1a, 100/100 mg dose group, Day 1 (baseline) sample) was 2.8 nM. For the same molecule, the EC50 ([1]; 24 h, read-out: EC50 Day 1, Subject M, GT 1a, 100/100 mg dose group, Day 1 (baseline) sample) was 0.91 nM, the EC50 ([1]; 24 h, read-out: EC50 Day 1, Subject N, GT 1a, 100/100 mg dose group, Day 1 (baseline) sample) was 0.58 nM and the EC50 ([1]; 24 h, read-out: EC50 Day 1, Subject P, GT 1a, 50/100 mg dose group, Day 1 (baseline) sample) was 0.81 nM. It also gave an EC50 ([1]; 24 h, read-out: EC50 Day 1, Subject Q, GT 1a, 50/100 mg dose group, Day 1 (baseline) sample) of 0.68 nM, an EC50 ([1]; 24 h, read-out: EC50 Day 1, Subject R, GT 1a, 50/100 mg dose group, Day 1 (baseline) sample) of 5.97 nM and an EC50 ([1]; 24 h, read-out: EC50 Day 1, Subject T, GT 1a, 50/100 mg dose group, Day 1 (baseline) sample) of 0.45 nM. For the same molecule, the EC50 ([1]; 24 h, read-out: EC50 Day 1, Subject U, GT 1a, 50/100 mg dose group, Day 1 (baseline) sample) was 1.52 nM, the EC50 ([1]; 24 h, read-out: EC50 Day 1, Subject V, GT 1a, 50/100 mg dose group, Day 1 (baseline) sample) was 1.01 nM and the EC50 ([1]; 24 h, read-out: EC50 Day 1, Subject W, GT 1a, 50/100 mg dose group, Day 1 (baseline) sample) was 1.54 nM. It also gave an EC50 ([1]; 96 h, read-out: EC50 Day 4, Subject A, GT 1a, 200/100 mg dose group, Day 4 sample) of 1.14 nM, an EC50 ([1]; 96 h, read-out: EC50 Day 4, Subject B, GT 1a, 200/100 mg dose group, Day 4 sample) of 1.06 nM and an EC50 ([1]; 96 h, read-out: EC50 Day 4, Subject C, GT 1a, 200/100 mg dose group, Day 4 sample) of 3.23 nM. For the same molecule, the EC50 ([1]; 96 h, read-out: EC50 Day 4, Subject D, GT 1a, 200/100 mg dose group, Day 4 sample) was 2.57 nM, the EC50 ([1]; 96 h, read-out: EC50 Day 4, Subject H, GT 1a, 100/100 mg dose group, Day 4 sample) was 10.2 nM and the EC50 ([1]; 96 h, read-out: EC50 Day 4, Subject L, GT 1a, 100/100 mg dose group, Day 4 sample) was 8.84 nM. It also gave an EC50 ([1]; 96 h, read-out: EC50 Day 4, Subject N, GT 1a, 100/100 mg dose group, Day 4 sample) of 0.64 nM, an EC50 ([1]; 96 h, read-out: EC50 Day 4, Subject P, GT 1a, 50/100 mg dose group, Day 4 sample) of 8.88 nM and an EC50 ([1]; 96 h, read-out: EC50 Day 4, Subject R, GT 1a, 50/100 mg dose group, Day 4 sample) of 68.7 nM. For the same molecule, the EC50 ([1]; 96 h, read-out: EC50 Day 4, Subject U, GT 1a, 50/100 mg dose group, Day 4 sample) was 11.5 nM, the EC50 ([1]; 96 h, read-out: EC50 Day 4, Subject V, GT 1a, 50/100 mg dose group, Day 4 sample) was 1.69 nM and the EC50 ([1]; 96 h, read-out: EC50 Day 4, Subject W, GT 1a, 50/100 mg dose group, Day 4 sample) was 9.78 nM. The “Subjects with increased EC50 values at day 4 relative to baseline” value ([1]; subjects with Day 4 samples amplified, includes GT 1b subject J) was 7 of the 13, the EC50 ([2]; 24 h, read-out: EC50 Day 1, Subject F, GT 1b, 200/100 mg dose group, Day 1 (baseline) sample) was 0.04 nM and the EC50 ([2]; 24 h, read-out: EC50 Day 1, Subject J, GT 1b, 100/100 mg dose group, Day 1 (baseline) sample) was 0.04 nM. The EC50 ([2]; 24 h, read-out: EC50 Day 1, Subject K, GT 1b, 100/100 mg dose group, Day 1 (baseline) sample) was 0.07 nM, the EC50 ([2]; 24 h, read-out: EC50 Day 1, Subject O, GT 1b, 100/100 mg dose group, Day 1 (baseline) sample) was 0.05 nM and the EC50 ([2]; 24 h, read-out: EC50 Day 1, Subject S, GT 1b, 50/100 mg dose group, Day 1 (baseline) sample) was 0.06 nM. For the same molecule, the EC50 ([2]; 96 h, read-out: EC50 Day 4, Subject J, GT 1b, 100/100 mg dose group, Day 4 sample) was 15.5 nM, the “EC50 shift at day 4 relative to baseline” value ([2]; single GT 1b subject (J), 100/100 mg dose group) was 368 fold and the EC50 (GT 1a replicon WT) was 1.19 nM. For the same molecule, the “Fold Change” value (GT 1a replicon R155G; EC50 of GT 1a R155G vs GT 1a WT) was 16, the EC50 (GT 1a replicon R155G; Hepatitis C virus, GT1A) was 19.2 nM and the “Fold Change” value (GT 1a replicon R155K; EC50 of GT 1a R155K vs GT 1a WT) was 43. The EC50 (GT 1a replicon R155K; Hepatitis C virus, GT1A) was 51.5 nM, the “Fold Change” value (GT 1a replicon D168A; EC50 of GT 1a D168A vs GT 1a WT) was 59 and the EC50 (GT 1a replicon D168A; Hepatitis C virus, GT1A) was 70.4 nM. For the same molecule, the “Fold Change” value (GT 1a replicon D168V; EC50 of GT 1a D168V vs GT 1a WT) was 115, the EC50 (GT 1a replicon D168V; Hepatitis C virus, GT1A) was 136 nM and the EC50 (GT 1b replicon WT) was 0.07 nM. The “Fold Change” value (GT 1b replicon D168V; EC50 of GT 1b D168V vs GT 1b WT) was 257, the EC50 (GT 1b replicon D168V; Hepatitis C virus, GT1B) was 17.5 nM and the Aqueous solubility (Aqueous solubility) was “low aqueous solubility”.
In the case of `COc1ccc2c(O[C@@H]3C[C@H]4C(=O)N[C@]5(C(=O)O)C[C@H]5/C=C\CCCCC[C@H](NC(=O)OC5CCCC5)C(=O)N4C3)cc(-c3csc(NC(C)C)n3)nc2c1` [BILN 2061], the “Resistance conferred by the R155K mutation” value (HCV R155K mutation) is listed as “high-level resistant”.
